Experiment [1] addresses T1, PRMT1 (Homo sapiens, UniProt Q99873).
T1 construct: made in house
As to the kind of experiment: MTase-Glo Methyltransferase Assay, kinetic parameters of peptide substrates. It is filed as biochemical. Conditions: Tris pH 8.0; for Km / kcat: MTase-Glo luminescence, peptide 0–1000 µM, 4 µL of 200 nM PRMT1, 10 min at 37 °C, SAH standards, fit with GraFit; for kcat/Km: from kcat and Km, MTase-Glo assay, 37 °C. The procedure:
To determine the kinetic parameters, kcat, Km and kcat/Km for each of the validation or hit peptides, a MTase-Glo™ Methyltransferase Assay from the Promega Corporation was utilized to monitor the enzymatic reaction.
Varying concentrations (0–1000 µM) of the peptide in assay buffer (4 mM DTT, 0.4 mg/mL BSA, 4 mM EDTA, 12 mM MgCl2, 200 mM NaCl and 80 mM Tris Buffer-pH 8.0) were incubated at 37 °C for 10 min. Then 4 µL of 200 nM PRMT1 was added to this reaction mixture and continued for another 10 min at 37 °C. Of note the enzymatic activity was linear with respect to time and enzyme concentration under these conditions. The reaction was quenched by the addition of 2 µL 0.5% TFA and placed at room temperature before adding 2.2 µL of the 6× MTase-Glo Reagent. After 30 min, 13.2 µL of the MTase-Glo Detection Solution was added and incubated for an additional 30 min before the luminescence was read using a BioTek Synergy 2 Multi-Mode Microplate Reader (Agilent Technologies, Santa Clara, CA). Luminescence signal was converted to product concentration using SAH standards (0–5 μM) and the initial rates were fit to Equation (1):[…](1) using GraFit version 7.03.

Experiment [2] deals with PRMT1. The experiment can be described thus: Plate-based on-bead substrate screening assay (ADMA antibody / alkaline phosphatase / BCIP). It is filed as biochemical. To be noted: 20 beads/well; 500 nM PRMT1, 400 µM SAM, 37 °C, HEPES pH 8.0; hit = at least 10 blue beads per well. The procedure: The beads from the filter plate were transferred to an Acrowell 96 Filter screening plate (Cat#5020; Pall Corporation; Port Washington, NY) and rinsed with 0.20 mL DI water, followed by 0.20 mL of TBST 10 times. The beads were swelled with 0.25 mL TBST overnight with gentle rocking at 4 °C. The plate was rinsed with 0.25 mL of Assay Buffer #1 (50 mM HEPES pH 8.0, 50 mM NaCl, 1 mM EDTA). After draining, the plate was incubated with 500 nM PRMT1 in 0.1 mL of Assay Buffer #2 (50 mM HEPES pH 8.0, 50 mM NaCl, 1 mM EDTA, 0.5 mM DTT, 400 µM SAM) for 90 min at 37 °C while rocked gently at 120 rpm. The plate was rinsed with TBST (5 × 0.20 mL) then rocked gently in 100 µL of 0.1% SDS for 15 min at room temperature, before being washed with DI water (10 × 0.20 mL) and TBST (10 × 0.20 mL).
Beads were blocked with 125 µL of 1.5% (w/v) BSA in TBST for 1 h at room temperature with gentle rocking. The beads were rinsed with TBST (5 × 0.20 mL), then incubated overnight at 4 °C with 0.065 mL total volume of TBST + 1.5% (w/v) BSA + 1:500 Ab412 antibody (purchased from Abcam; Cambridge, UK) with gentle rocking.
The plate was then rinsed with 0.20 mL of TBS for 10 min and 0.20 mL TBST for another 10 min. The plate was incubated with gentle rocking for 60 min at room temperature with 0.065 mL total volume of TBST + 1.5% (w/v) BSA + 1:4000 Ab98690 antibody (secondary antibody: purchased from Abcam; Cambridge, UK). This mixture was rinsed with TBS (10 × 0.20 mL), then 0.2 mL TBST for 10 min. The plate was then incubated with 2.5 mg/mL 5-Bromo-4-chloro-3-indolyl phosphate (BCIP: a substrate that detects alkaline phosphatase emitting a blue hue when conjugated with secondary antibodies) dissolved in BCIP buffer (5.85 g NaCl, 12.1 g Tris-base, 0.476 g MgCl2 in 1 L of DI water, pH 9.0) at room temperature for 1 h with gentle rocking. The reaction was quenched with 0.1 M HCl.
Previously, we reported on this novel plate-based screening assay of the PRMT family of enzymes and identified a PRMT1 peptide substrate with kcat/Km of 8.1 × 10^4 M^−1 min^−1, which validated this screening methodology. In the current work, we utilized this method to screen a second-generation peptide library against PRMT1, which incorporated amino acids with diverse charge, size, and PTMs around the substrate arginine. Beads functionalized with peptide library members were washed extensively with buffers and subsequently incubated with PRMT1 for 60 min. The methylation reaction was then quenched with sodium dodecyl sulfate to denature PRMT1 and halt the enzymatic reaction. The peptide beads that contained ADMA as a result of PRMT1 action were identified using a 1° antibody that binds only to ADMA. […] The beads were then incubated with a 2° antibody conjugated to alkaline phosphatase. […]

The target of experiment [3] is T1, PRMT1. To be noted: cited from earlier work. The procedure: Table 3 List of Validation Peptide Sequences along with the Kinetic Parameters. | column: kcat (min^−1); Km (µM); kcat/Km (M^−1 min^−1) || Design and Synthesis of the Peptide Library. Histone peptides are well-documented substrates of PRMT1 and thus provide a good model for the design of a screening library to search for better PRMT1 peptide substrates. […] Given that our study is focused on identifying peptide substrates with improved kinetic parameters, we chose to use a library based on the H4-16 template. Our previous work highlighted that flexibility was permitted within the ... || Rather than testing all individual hit peptide sequences, and to help identify the specific elements that are important for PRMT1 substrate binding, we collected and synthesized a series of consensus-based sequences from the list of hit peptides.

Experiment [4] has as its target T1, PRMT1. The experiment can be described thus: MTase-Glo assay, inhibition by chloroacetamidine warhead peptide. Conditions: inhibitor 0–250 µM, 4 µL of 400 nM PRMT1, 15 min pre-incubation at 37 °C, substrate AcH4-21 (1 µL of 225 µM), Tris pH 8.0. The class given is biochemical. The procedure: The MTase-Glo assay was also used to determine the inhibition parameters of the chloroacetamidine warhead peptide. For this assay, various concentrations of the chloroacetamidine warhead peptide (0–250 µM) were added to reaction buffer (80 mM Tris Buffer [pH 8.0], […], 4 mM EDTA, 12 mM MgCl2, 0.4 mg/mL BSA and 4 mM DTT) and incubated for 10 min at 37 °C. Following this incubation, 4 µL of 400 nM PRMT1 was added to the inhibition reaction mix and continued to be incubated at 37 °C for 15 min. The substrate peptide, 1 uL of 225 µM AcH4-21, was added to each reaction for 15 min. To quench the reaction, each sample received 2 µL of 0.5% TFA solution and placed at room temperature before 2.2 µL of the 6× MTase-Glo reagent was added to each sample for 30 min. Then 13.2 µL of the MTase-Glo Detection solution was added and incubated for an additional 30 min. The luminescence signal was read using a BioTek Synergy 2 Multi-Mode Microplate Reader and the % activity was calculated using an SAH standard curve (0–5 µM) before being fit to Equation (2):(2) Fractional Activity of PRMT=1/1+ 1/IC50 using GraFit version 7.03.

Where [5] appears, read: reference histone peptide substrate in Table 3, same kcat/Km as quoted.

Like-named read-outs stand apart in the source and are kept apart here. Starred links: 1 amine or outer side, 2 acyl side, 3 side chain; linkers in the order of their positions; H or OH if unused. Non-standard residues stand in square brackets, D forms with d. Residues, ends and D or L forms follow the SMILES beside them. X1 = N=C(CCl)NCCC[C@H](N[*:1])C(=O)[*:2]

A word on the Km: it is the concentration of substrate that gives half-maximal velocity. For orientation: kcat means the number of substrate molecules converted per active site and unit of time at saturation. The kcat/Km is the turnover number divided by the Michaelis constant. A word on the IC50: it is the point on the concentration scale where inhibition reaches its midpoint.

T1 sequence (Q99873 1-353 isoform Q99873-3): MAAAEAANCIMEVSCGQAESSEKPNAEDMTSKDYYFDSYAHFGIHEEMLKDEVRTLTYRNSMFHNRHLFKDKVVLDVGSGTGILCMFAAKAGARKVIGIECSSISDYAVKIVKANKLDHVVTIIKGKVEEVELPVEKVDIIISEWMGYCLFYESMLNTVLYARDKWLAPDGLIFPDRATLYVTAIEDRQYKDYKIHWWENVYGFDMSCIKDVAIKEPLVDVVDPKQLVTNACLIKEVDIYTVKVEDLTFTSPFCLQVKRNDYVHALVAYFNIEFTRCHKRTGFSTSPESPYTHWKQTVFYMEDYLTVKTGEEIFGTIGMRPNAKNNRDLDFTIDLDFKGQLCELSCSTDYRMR

As for “WWXXWRGGKGLGKGGAK [Well B10 Peptide, “non-hit” library peptide WWXX…, X = acetylated lysine]”, at PRMT1 [1], the Km result is listed as “not detectable” and the kcat result is “not detectable”. For the same compound, the “hit / non-hit as PRMT1 substrate in the plate-based screen” value (from here on “hit / non-hit as PRMT1 substrate”) in the experiment with PRMT1 [2] is on record as “non-hit”.

With “VXWAWRGGKGLGKGGAK [Well E9 Peptide, “non-hit” library peptide VX…, X = acetylated lysine]”, at PRMT1 [1], the Km result is listed as “not detectable” and the kcat entry was “not detectable”. Also, the “hit / non-hit as PRMT1 substrate” value with PRMT1 [2] is on record as “non-hit”.

Turning to “SGRGKGGKGLGKGGAK [AcH4-16, Histone H4-16 peptide, a mediocre substrate of PRMT1, template of the library]”, on PRMT1 [3] (setting [5]), the Km was 170 ± 25 µM and the catalytic constant (kcat) is 0.00533 ± 1.7e-05 s⁻¹. Besides, the kcat/Km on PRMT1 [3] (reference histone peptide substrate) was 31.7 M⁻¹ s⁻¹.

For “XCCVARGGKGLGKGGAK [Well G2 Peptide, “hit” library peptide X…, X = acetylated lysine]”, at PRMT1 [1], the kcat stood at 0.0164 ± 6.7e-05 s⁻¹ and the kcat/Km is 648 M⁻¹ s⁻¹. In addition, the Km on PRMT1 [1] (read-out: Km) was found to be 25.4 ± 3.95 µM. Besides, the “hit / non-hit as PRMT1 substrate” value in the experiment with PRMT1 [2] is given as “hit”.

As for XKKVVRGGKGLGKGGAK [VALPep4], at PRMT1 [1], the catalytic constant (kcat) was found to be 0.0268 ± 0.00173 s⁻¹ and the kcat/Km was found to be 3600 M⁻¹ s⁻¹. In addition, the Km at PRMT1 [1] (read-out: Km) is 7.42 ± 2.02 µM.

As to XKCKARGGKGLGKGGAK [VALPep1], on PRMT1 [1], the kcat is 0.041 ± 0.00133 s⁻¹ and the kcat/Km came out at 4700 M⁻¹ s⁻¹. For the same compound, the Km at PRMT1 [1] (read-out: Km) came out at 8.72 ± 1.2 µM.

Consider XKKKARGGKGLGKGGAK [VALPep2], for which, on PRMT1 [1], the kcat stood at 0.043 ± 0.0029 s⁻¹ and the kcat/Km stood at 5480 M⁻¹ s⁻¹. In addition, on PRMT1 [1] (read-out: Km), the Km came out at 7.82 ± 2.23 µM.

As for `CC(=O)NCCCC[C@H](N)C(=O)N[C@@H](CCCCN)C(=O)N[C@@H](CS)C(=O)N[C@@H](CCCCN)C(=O)N[C@@H](C)C(=O)N[C@@H](CCCNC(=N)CCl)C(=O)NCC(=O)NCC(=O)N[C@@H](CCCCN)C(=O)NCC(=O)N[C@@H](CC(C)C)C(=O)NCC(=O)N[C@@H](CCCCN)C(=O)NCC(=O)NCC(=O)N[C@@H](C)C(=O)N[C@@H](CCCCN)C(N)=O` [VALPep1 Warhead Peptide] (H-K(Ac)KCKA[X1]GGKGLGKGGAK-NH2), the IC50 on PRMT1 [4] worked out at 3.47 ± 0.46 µM.

For XKCVVRGGKGLGKGGAK [VALPep3], at PRMT1 [1], the kcat was found to be 0.0154 ± 0.0006 s⁻¹ and the kcat/Km turned out to be 2230 M⁻¹ s⁻¹. The Km on PRMT1 [1] (read-out: Km) came to 6.92 ± 1.16 µM.

For “H4-21 peptide: one of the best-known PRMT1 peptide substrates”, the kcat/Km with PRMT1 [3] (known PRMT1 peptide substrate Histone H4-21, literature value, no reference printed) is 4670 M⁻¹ s⁻¹; with PRMT1 [3] (known PRMT1 peptide substrate Histone H4-21, literature value, no reference printed, listed as Histone H4-21) it was 4670 M⁻¹ s⁻¹.

“VKVCXRGGKGLGKGGAK [Well D5 Peptide, “hit” library peptide VKVCX…, X = acetylated lysine]”: on PRMT1 [1], the kcat is 0.0318 ± 0.00188 s⁻¹ and the kcat/Km worked out at 4700 M⁻¹ s⁻¹. In addition, at PRMT1 [1] (listed as Well D5), the kcat is 0.03187 ± 0.00188 s⁻¹ and the kcat/Km came to 4702 M⁻¹ s⁻¹. For the same compound, the Km at PRMT1 [1] (read-out: Km) was 6.78 ± 1.77 µM. Also, the “hit / non-hit as PRMT1 substrate” value in the experiment with PRMT1 [2] was “hit”.

Values taken from PMC12650519, “The Identification of a Sub-Micromolar Peptide-Based Protein Arginine Methyltransferase 1 (PRMT1) Inhibitor from a Plate-Based Screening Assay” (Biomolecules, 2025).
